Converted amounts (≈) assume the structure as drawn.
Experiments:
[1] = system: Mycobacterium tuberculosis; experiment: In vitro minimal inhibitory concentration against Mycobacterium tuberculosis [H37Rv stain]; assay type: functional
[2] = system: Mycobacterium tuberculosis; experiment: In vitro inhibitory concentration against Mycobacterium tuberculosis [H37Rv stain]; assay type: functional, organism-based
[3] = system: Mycobacterium tuberculosis; experiment: Log CFU in lungs of mice infected with H37Rv stain of Mycobacterium tuberculosis after administration at 25 mg/Kg; assay type: functional, Lung

SMILES	MIC [1] [µM]	IC50 [2] [µM]	Log CFU [3]
C/C(=N/NC(=O)c1ccncc1)c1cccc(CN2CCCCC2)c1O	4.43 (≈ 1.56 µg/mL)	> 17.7	
CCN(CC)Cc1cccc(/C(C)=N\NC(=O)c2ccncc2)c1O	2.29 (≈ 0.78 µg/mL)	> 18.4	
CCn1cc(C(=O)O)c(=O)c2cc(F)c(N3CCN(Cc4cccc(/C(C)=N\NC(=O)c5ccncc5)c4O)C(C)C3)c(F)c21 (centres undefined)	1.26 (≈ 0.779 µg/mL)	> 10.1	
C/C(=N/NC(=O)c1ccncc1)c1cccc(CN2CCNCC2)c1O	0.56 (≈ 0.198 µg/mL)	> 17.7	6.08
C/C(=N/NC(=O)c1ccncc1)c1cccc(CN(Cc2ccccc2)Cc2ccccc2)c1O	3.36 (≈ 1.56 µg/mL)	> 13.5	
C/C(=N/NC(=O)c1ccncc1)c1cccc(CN2CCN(c3ccc(F)cc3)CC2)c1O	0.87 (≈ 0.389 µg/mL)	> 14	
NNC(=O)c1ccncc1 [ISONIAZID]	2.04 (≈ 0.28 µg/mL)	> 45.6	6.38
C/C(=N/NC(=O)c1ccncc1)c1cccc(CN2CCOCC2)c1O	2.2 (≈ 0.78 µg/mL)	> 17.6	
CCCCN(CCCC)Cc1cccc(/C(C)=N\NC(=O)c2ccncc2)c1O	3.93 (≈ 1.56 µg/mL)	> 15.8	
C/C(=N/NC(=O)c1ccncc1)c1cccc(CN2CCCC2)c1O	4.61 (≈ 1.56 µg/mL)	> 18.5	
C/C(=N/NC(=O)c1ccncc1)c1cccc(CN(c2ccccc2)c2ccccc2)c1O	3.57 (≈ 1.56 µg/mL)	> 14.3	
C/C(=N/NC(=O)c1ccncc1)c1cccc(CN2CCN(Cc3ccccc3)CC2)c1O	0.88 (≈ 0.39 µg/mL)	> 14.1	
C/C(=N/NC(=O)c1ccncc1)c1cccc(CN2CCN(C)CC2)c1O	8.61 (≈ 3.16 µg/mL)	> 17.2	
C/C(=N/NC(=O)c1ccncc1)c1cccc(CN2CCN(c3ccccn3)CC2)c1O	0.9 (≈ 0.387 µg/mL)	> 14.5	
C/C(=N/NC(=O)c1ccncc1)c1cccc(CN2CCN(c3cc4c(cc3F)c(=O)c(C(=O)O)cn4C3CC3)CC2)c1O	1.3 (≈ 0.778 µg/mL)	> 10.4	
C/C(=N/NC(=O)c1ccncc1)c1cccc(CN(C)C)c1O	2.49 (≈ 0.778 µg/mL)	> 20	

From ChEMBL document CHEMBL1142849, “Synthesis and in vitro and in vivo antimycobacterial activity of isonicotinoyl hydrazones” (Bioorg Med Chem Lett, 2005)
